Experimental findings from patent publication US9181188B2, “Aryl ureas as kinase inhibitors” (Bayer Healthcare LLC, priority 2002, dated 2015) are described below.

One may read the melting point as the temperature of the solid-liquid transition. As for `CNC(=O)c1cc(Oc2ccc(NC(=O)Nc3ccc(Cl)c(C(F)(F)F)c3)cc2)cc[n+]1[O-]` [Example 1, N-[4-chloro-3-(trifluoromethyl)phenyl]-N′-{4-[2-(N-methylcarbamoyl)-1-oxo-(4-pyridyloxy)]phenyl}urea], the melting point fell in the range of 232 to 234 °C.
